The subject of test [1] is Acinetobacter baumannii. As to the kind of experiment: Antibacterial activity against Acinetobacter baumannii ATCC 19606 by microbroth dilution method. It is filed as functional, ATCC 19606 = CIP 70.34 = JCM 6841. As to conditions: Acinetobacter baumannii, ATCC 19606 = CIP 70.34 = JCM 6841; read-out: MIC.
Test [2] deals with Staphylococcus aureus. As to the kind of experiment: Antibacterial activity against methicillin-sensitive Staphylococcus aureus ATCC 29213 by microbroth dilution method. It is filed as functional. As to conditions: Staphylococcus aureus, ATCC 29213; read-out: MIC. Background: Broth dilution looks for growth in wells or tubes with falling amounts of substance.
In test [3] the test system is Bacillus subtilis. As to the kind of experiment: Antibacterial activity against Bacillus subtilis ATCC 23857 by microbroth dilution method. It is filed as functional. The settings on record: Bacillus subtilis, ATCC 23857; read-out: MIC.
In test [4] the test system is Enterococcus faecalis. The test is described as follows: Antibacterial activity against Enterococcus faecalis ATCC 33186 by microbroth dilution method. As to conditions: Enterococcus faecalis, ATCC 33186; read-out: MIC. In kind it is functional.
Test [5] relates to Streptococcus pyogenes. The test is described as follows: Antibacterial activity against Streptococcus pyogenes ATCC 700294 by microbroth dilution method. The settings on record: Streptococcus pyogenes, ATCC 700294; read-out: MIC. It is filed as functional.
Test [6] concerns Burkholderia cepacia. The test is described as follows: Antibacterial activity against Burkholderia cepacia ATCC 25416 by microbroth dilution method. It is filed as functional.
Test [7] relates to Escherichia coli. As to the kind of experiment: Antibacterial activity against Escherichia coli K-12 by microbroth dilution method. It is filed as functional.
The subject of test [8] is Mycobacterium tuberculosis. As to the kind of experiment: Antitubercular activity against Mycobacterium tuberculosis H37Rv by microbroth dilution method. It is filed as functional. The settings on record: Mycobacterium tuberculosis, H37Rv; read-out: MIC.
The subject of test [9] is Staphylococcus aureus. The test is described as follows: Antibacterial activity against methicillin-resistant Staphylococcus aureus NRS70 by microbroth dilution method. The settings on record: Staphylococcus aureus, NRS70; read-out: MIC. It is filed as functional.
Test [10] concerns Klebsiella pneumoniae. As to the kind of experiment: Antibacterial activity against Klebsiella pneumoniae ATCC 33495 by microbroth dilution method. In kind it is functional.
In test [11] the test system is Bacillus anthracis. The test is described as follows: Antibacterial activity against Bacillus anthracis Sterne 34F2 by microbroth dilution method. It is filed as functional. As to conditions: Bacillus anthracis, Sterne 34F2; read-out: MIC.
For test [12], the system named is Proteus vulgaris. As to the kind of experiment: Antibacterial activity against Proteus vulgaris ATCC 33420 by microbroth dilution method. In kind it is functional.
In test [13] the test system is Proteus mirabilis. The test is described as follows: Antibacterial activity against Proteus mirabilis ATCC 25933 by microbroth dilution method. In kind it is functional.
The test system of test [14] is Streptococcus pneumoniae. As to the kind of experiment: Antibacterial activity against Streptococcus pneumoniae R6 by microbroth dilution method. As to conditions: Streptococcus pneumoniae, R6; read-out: MIC. In kind it is functional.
Test [15] deals with Pseudomonas aeruginosa. As to the kind of experiment: Antibacterial activity against Pseudomonas aeruginosa PAO1 by microbroth dilution method. It is filed as functional.
Test [16] has as its system Escherichia coli. The test is described as follows: Antibacterial activity against Escherichia coli harboring TolC deletion mutant by microbroth dilution method. In kind it is functional. As to conditions: Escherichia coli; read-out: MIC.

≈ marks a conversion by molar mass, not a printed value.

As a reminder, the MIC is the lowest concentration found to suppress growth.

`COc1ccc2cc1Oc1cc(ccc1OC)CCC(OS(=O)(=O)c1ccc(OC(F)(F)F)cc1)CCCC2` (stereo unspecified): the minimal inhibitory concentration (MIC) in [1] was above 100 µg/mL; in test [2], above 100 µg/mL; in test [3], above 100 µg/mL; in test [4], 50 µg/mL (≈ 88.2 µM); in [5], above 100 µg/mL; in [6], above 100 µg/mL. Further, the MIC in [7] was above 100 µg/mL; in test [8] it was above 100 µg/mL; in test [9] it was 50 µg/mL (≈ 88.2 µM); in [10], above 100 µg/mL; in test [11], 100 µg/mL (≈ 176 µM); in test [12] it was above 100 µg/mL. Moreover, the MIC in test [13], in test [14], in test [15] and in [16] was above 100 µg/mL in each case.
For `COc1ccc2cc1Oc1cc(ccc1OC)CCC(OC(C)=O)CCCC2` (stereo unspecified), the MIC in [1], in test [2], in test [3], in test [4], in test [5] and in test [6] was above 100 µg/mL throughout. For the same compound, the MIC in test [7], in test [8], in [9], in test [10], in test [11] and in [12] was above 100 µg/mL in each case. For the same compound, the minimum inhibitory concentration (MIC) in test [13] is above 100 µg/mL; in [14] it was above 100 µg/mL; in [15] it was above 100 µg/mL; in test [16], 12.5 µg/mL (≈ 32.5 µM).
As to `COc1ccc2cc1Oc1cc(ccc1OC)CCC(NCCCc1ccccc1)CCCC2` (stereo unspecified), the MIC is 50 µg/mL (≈ 109 µM) in test [1]; 25 µg/mL (≈ 54.4 µM) in test [2]; 25 µg/mL (≈ 54.4 µM) in test [3]; 25 µg/mL (≈ 54.4 µM) in test [4]; 50 µg/mL (≈ 109 µM) in [5]; above 100 µg/mL in [6]. Besides, the MIC in test [7] was above 100 µg/mL; in test [8] it was 50 µg/mL (≈ 109 µM); in test [9], 25 µg/mL (≈ 54.4 µM); in test [10] it was above 100 µg/mL; in test [11] it was 50 µg/mL (≈ 109 µM); in test [12] it was above 100 µg/mL. Also, the MIC was above 100 µg/mL in test [13], 50 µg/mL (≈ 109 µM) in test [14], above 100 µg/mL in test [15] and 12.5 µg/mL (≈ 27.2 µM) in [16].
Turning to `COc1ccc2cc1Oc1cc(ccc1OC)CCC(OC(=O)Cc1ccccc1)CCCC2` (stereo unspecified), the MIC in [1], in test [2], in test [3], in test [4], in [5] and in [6] was above 100 µg/mL each time. Besides, the MIC in [7], in [8], in test [9], in [10], in test [11] and in test [12] was above 100 µg/mL each time. Also, the minimum inhibitory concentration (MIC) in [13], in [14], in [15] and in test [16] was above 100 µg/mL each time.
Regarding `COc1ccc2cc1Oc1cc(ccc1OC)CCC(NCCc1ccc(O)cc1)CCCC2` (stereo unspecified), the minimal inhibitory concentration (MIC) is above 100 µg/mL in test [1]; above 100 µg/mL in test [2]; 50 µg/mL (≈ 108 µM) in test [3]; 100 µg/mL (≈ 217 µM) in test [4]; 100 µg/mL (≈ 217 µM) in [5]; above 100 µg/mL in [6]. Moreover, the MIC is above 100 µg/mL in test [7]; 100 µg/mL (≈ 217 µM) in test [8]; 100 µg/mL (≈ 217 µM) in test [9]; above 100 µg/mL in [10]; 50 µg/mL (≈ 108 µM) in test [11]; above 100 µg/mL in [12]. Moreover, the minimal inhibitory concentration (MIC) was above 100 µg/mL in test [13], 100 µg/mL (≈ 217 µM) in test [14], above 100 µg/mL in [15] and 100 µg/mL (≈ 217 µM) in test [16].
Consider `Oc1ccc2cc1Oc1cc(ccc1O)CCC(NCc1ccccc1)CCCC2` (stereo unspecified), for which the MIC in [1] was above 50 µg/mL; in test [2], above 50 µg/mL; in test [3], above 50 µg/mL; in test [4] it was above 50 µg/mL; in test [5], above 50 µg/mL; in test [6] it was above 100 µg/mL. Besides, the minimum inhibitory concentration (MIC) in test [7] is above 50 µg/mL; in [8], 100 µg/mL (≈ 248 µM); in test [9], above 50 µg/mL; in test [10], above 100 µg/mL; in [11] it was above 50 µg/mL; in test [12] it was above 100 µg/mL. The MIC is above 100 µg/mL in test [13], above 50 µg/mL in test [14], above 100 µg/mL in [15] and 50 µg/mL (≈ 124 µM) in [16].
